# Data reported in PMC11982498 (Redox Biology, 2025).
# Legend:
# [1] = test system: BAX gene transcription in brain of APP/PS1 mice; test: Real-time RT-PCR of mice brain, BAX; format: in vivo
# Procedure: Five months old male APP/PS1 mice, weighing 25–33 g, were purchased from Guangdong Medical Laboratory Animal Center and housed in the Laboratory Animal Center of Sun Yat-sen University (Guangzhou, China) for experimentation. […] The mice were housed in a specific pathogen-free environment with a controlled temperature of 22 ± 1 °C and a 12-h dark/light cycle. The mice were fed with a standard diet, and 30 mice were randomly divided into 6 groups (N = 5). […] Behavioral experiments were then conducted, and tissue specimens were collected for biochemical analysis.
# ^a -∆∆Ct = -[(Ct value of genes in treated sample - Ct value of genes in control) - (Ct value of β-actin in treated sample - Ct value of β-actin in control)]. ^b F: The relative expression fold.
# Following sample homogenization, chloroform was added, and the solution was allowed to have phase separation into an upper aqueous layer (containing RNA), an interphase, and a lower organic layer (containing DNA and proteins). RNA was precipitated from the aqueous phase using isopropanol, while DNA was precipitated from the aqueous-organic interphase using ethanol.
# Quantitative real-time polymerase chain reaction (qRT-PCR) was performed using the 2× RealStar SYBR Mixture (GenStar, Cat# A301-10, Guangzhou, China) on a LightCycler 480 II real-time PCR system (Roche, USA). Data were analyzed using the 2^−ΔΔCt method. Actin served as the internal control, and relative mRNA levels were normalized accordingly.
# Aβ1-42 = biological target: T1, Aβ1-42 (Homo sapiens, UniProt P05067); test: Transmission electron microscopy of Aβ1-42 fibrils; format: biochemical; conditions: 20 μM compound, 72 h
# T1 construct: Aβ1-42 was purchased from Gill Biochemicals Ltd (Shanghai, China); purchased Gill Biochemicals Ltd (Shanghai, China)
# Procedure: (§1) TEM experiment was carried out following a published method without significant modification, and the Aβ1-42 solution (100 μM) was co-incubated with B14 (20 μM) or Curcumin (20 μM) at 37 °C for 72h. The samples were dropped to a carbon-coated grid, stained with 2 % phosphotungstic acid, and then dried at room temperature. The morphology of Aβ1-42 fiber was observed on a JEM-1200EX II transmission electron microscope (Jeol, Japan).
# as §1, with “The” for “TEM experiment was carried out following a published method without significant modification, and the”, “B14 solution” for “B14”, “2%” for “2 %”
# [2] = test system: BAX, Cleaved Caspase 3, Cleaved Caspase 9, Cyto-C, Apaf-1 in SH-SY5Y cells; test: Western blot of apoptosis related proteins in Aβ1-42 induced cell model; format: cell-based; conditions: 25 μM Aβ1-42 induced model
# Procedure: Protein samples (25–40 μg) were separated using 10 % SDS-PAGE and subsequently transferred onto PVDF membranes (0.22 μm, Servicebio, Guangzhou, China) via electro transfer. Following blocking with TBST solution (Servicebio, Guangzhou, China) containing 5 % BSA (Solarbio, Beijing, China) for approximately 60 min at room temperature, the membrane was exposed to various primary antibodies overnight at 4 °C on a rotating shaker. Then, the membranes were incubated with HRP-conjugated secondary antibody (Affinity, Changzhou, China) for 2 h. Protein bands were then detected using an ECL kit. The signal intensity of each target protein was quantified using Image J 1.8.0 software (Bio-Rad Laboratories, California, USA).
# Primary antibodies for Western blot analysis include BCL-2 (affinity biosciences OH, Cat# AF6139, USA), BAX (affinity biosciences OH, Cat# AF0120, USA), VEGF (affinity biosciences OH, Cat# AF5131, USA), C-MYC (affinity biosciences OH, Cat# AF0358, USA), Caspase9 (affinity biosciences OH, Cat# AF6348, USA), cleaved-Caspase9 (affinity biosciences OH, Cat# AF5240, USA), Caspase3 (affinity biosciences OH, Cat# AF6311, USA), cleaved-Caspase3 (affinity biosciences OH, Cat# AF7022, USA), and Cyto-C (affinity biosciences OH, Cat# AF6139, USA).
# APP/PS1 transgenic mice [3] = test: Nest building test (NBT); format: in vivo; conditions: B14 10, 20, 40 mg/kg i.p. every other day
# From the text: Five months old male APP/PS1 mice, weighing 25–33 g, were purchased from Guangdong Medical Laboratory Animal Center and housed in the Laboratory Animal Center of Sun Yat-sen University (Guangzhou, China) for experimentation. All procedures were approved by the Animal Care and Use Committee of Sun Yat-sen University and complied with legal requirements and national guidelines for the care and maintenance of laboratory animals (Approval No. SYSU-IACUC-2024-002032). The mice were housed in a specific pathogen-free environment with a controlled temperature of 22 ± 1 °C and a 12-h dark/light cycle. The mice were fed with a standard diet, and 30 mice were randomly divided into 6 groups (N = 5). Compound B14 was dissolved in saline and administered at doses of 10, 20, or 40 mg/kg. […]
# The spatial memory and learning abilities of the mice were assessed using Morris water maze (MWM), novel object recognition (NOR) and nesting experiments (NBT). The anxiety and depressive behaviors were evaluated through the open field test (OFT) and elevated plus maze (EPM). […]
# The nest building test (NBT) assesses fine motor dexterity, cognitive function, and emotional states in mice while minimizing stress. […] After this period, photographs were taken of the paper sheets, and the nests built by the mice were scored.
# APP/PS1 transgenic mice [4] = test: Histopathological examination (HE) of vital organs; conditions: mouse, in vivo
# From the text: Five months old male APP/PS1 mice, weighing 25–33 g, were purchased from Guangdong Medical Laboratory Animal Center and housed in the Laboratory Animal Center of Sun Yat-sen University (Guangzhou, China) for experimentation. All procedures were approved by the Animal Care and Use Committee of Sun Yat-sen University and complied with legal requirements and national guidelines for the care and maintenance of laboratory animals (Approval No. SYSU-IACUC-2024-002032). The mice were housed in a specific pathogen-free environment with a controlled temperature of 22 ± 1 °C and a 12-h dark/light cycle. The mice were fed with a standard diet, and 30 mice were randomly divided into 6 groups (N = 5). Compound B14 was dissolved in saline and administered at doses of 10, 20, or 40 mg/kg. APP/PS1 male mice were grown until 6 months of age, and then injected intraperitoneally with compound B14 every other day for 60 days. Behavioral experiments were then conducted, and tissue specimens were collected for biochemical analysis.
# The mice were sacrificed, with their brains and organs isolated and embedded in paraffin. The brains and organs were then sectioned into 6 μm thin slices. These slices were subjected to H&E or Nissl staining (Servicebio, Guangzhou, China). The stained sections were subsequently imaged and analyzed by using microscopy.
# Figure S11. […]
# T1 sequence (P05067 672-713 limits assumed): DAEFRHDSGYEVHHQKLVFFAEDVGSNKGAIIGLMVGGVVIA
structure (smiles),measurement,setting,value
O=C(CCN1CCOCC1)Nc1ccc2c(c1)c(=O)c1cc(NC(=O)CCN3CCOCC3)ccc1n2-c1ccc2occc2c1 [Compound B14],"-∆∆Ct, BAX",[1]; 10 mg/kg,-0.16
same,"F = 2^-∆∆Ct (relative expression fold), BAX",[1]; 10 mg/kg,1.11
same,"-∆∆Ct, BAX",[1]; 20 mg/kg,0.08
same,"F = 2^-∆∆Ct (relative expression fold), BAX",[1]; 20 mg/kg,0.94
same,"-∆∆Ct, BAX",[1]; 40 mg/kg,0.21
same,"F = 2^-∆∆Ct (relative expression fold), BAX",[1]; 40 mg/kg,0.86
same,ultrastructure of Aβ1-42 fibers (TEM),Aβ1-42,formation of protofibrils or amorphous oligomers was significantly reduced
same,levels of pro-apoptotic proteins (Western blot),[2],decreased levels of pro-apoptotic proteins
same,nesting scores (NBT),APP/PS1 transgenic mice [3],significantly improved
same,"histopathology of heart, liver, spleen, lungs, kidney",APP/PS1 transgenic mice [4],no significant detrimental effect for these organs
